Reference: patent US12378243B2, “Quinoline compounds as inhibitors of KRAS” (Incyte Corporation, priority 2021, dated 2025)
pIC50: −log10 of the molar value.

Experiments:
KRAS G12D = KRAS G12D (Homo sapiens, UniProt P01116, G12D); assay: GDP-GTP exchange assay, KRAS G12D; type: biochemical; settings: bodipy-loaded KRAS G12D 2.5 nM, GppNHp 500 uM, SOS1 150 nM; 4 hours pre-incubation, 2 hours incubation; read-out: G12D_exchange
Description: Inhibitors were serially diluted in DMSO and a volume of 0.1 μL was transferred to the wells of a black low volume 384-well plate. […] The exchange was initiated by the addition of a 5 μL/well volume containing 1 mM GppNHp and 300 nM SOS1 in assay buffer. […] The reaction plates were incubated at ambient temperature for 2 hours, a time estimated for complete GDP-GTP exchange in the absence of inhibitor.
Either GraphPad prism or Genedata Screener SmartFit was used to analyze the data. The IC50 values were derived by fitting the data to a four parameter logistic equation producing a sigmoidal dose-response curve with a variable Hill coefficient.
“NA” indicates IC50 not available.

KRAS G12V mutant = KRAS G12V mutant (Homo sapiens, UniProt P01116, G12V); assay: GDP-GTP exchange assay, KRAS G12V; type: biochemical; settings: bodipy loaded KRAS G12V 2.5 nM; 3 hours incubation after adding GppNHp-SOS1 mixture; read-out: G12V_exchange
Caco-2 cells = assay: Caco2 assay (permeability, A-B); type: in vitro ADME; settings: Papp absorptive direction (A-B), test compound 50 μM, 120 minutes at 37° C.
Description: Caco-2 cells are grown at 37° C. in an atmosphere of 5% CO2 in DMEM growth medium supplemented with 10% (v/v) fetal bovine serum, 1% (v/v) nonessential amino acids, penicillin (100 U/mL), and streptomycin (100 μg/mL). Confluent cell monolayers are subcultured every 7 days or 4 days for Caco-2 by treatment with 0.05% trypsin containing […]. Caco-2 cells are seeded in 96-well Transwell plates. The seeding density for Caco-2 cells is 14,000 cells/well. DMEM growth medium is replaced every other day after seeding. Cell monolayers are used for transport assays between 22 and 25 days for Caco-2 cells.
Cell culture medium is removed and replaced with HBSS. To measure the TEER, the HBSS is added into the donor compartment (apical side) and receiver compartment (basolateral side). The TEER is measured by using a REMS Autosampler to ensure the integrity of the cell monolayers. Caco-2 cell monolayers with TEER values ≥300 Ω·cm^2 are used for transport experiments. To determine the Papp in the absorptive direction (A-B), solution of test compound (50 μM) in HBSS is added to the donor compartment (apical side), while HBSS solution with 4% BSA is added to the receiver compartment (basolateral side). The apical volume was 0.075 mL, and the basolateral volume is 0.25 mL. The incubation period is 120 minutes at 37° C. in an atmosphere of 5% CO2. At the end of the incubation period, samples from the donor and receiver sides are removed and an equal volume of acetonitrile is added for protein precipitation. The supernatants are collected after centrifugation (3000 rpm, Allegra X-14R Centrifuge from Beckman Coulter, Indianapolis, IN) for LCMS analysis. The permeability value is determined according to the equation:
[formula] • where the flux rate (F, mass/time) is calculated from the slope of cumulative amounts of compound of interest on the receiver side, SA is the surface area of the cell membrane, VD is the donor volume, and MD is the initial amount of the solution in the donor chamber.
The symbol “+” indicates a Caco-2 value of […], “++” indicates a Caco-2 value of >0.5 but ≤1; and “+++” indicates a Caco-2 value of >1. “NA” indicates IC50 not available.

Sequence of KRAS G12D (P01116 1-188 isoform P01116-2 G12D): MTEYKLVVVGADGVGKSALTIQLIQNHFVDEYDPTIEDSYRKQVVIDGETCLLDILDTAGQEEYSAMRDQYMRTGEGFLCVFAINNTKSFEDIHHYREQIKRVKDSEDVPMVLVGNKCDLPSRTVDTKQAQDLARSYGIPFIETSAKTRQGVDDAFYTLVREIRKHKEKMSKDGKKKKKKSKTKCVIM
Sequence of KRAS G12V mutant (P01116 1-188 isoform P01116-2 G12V): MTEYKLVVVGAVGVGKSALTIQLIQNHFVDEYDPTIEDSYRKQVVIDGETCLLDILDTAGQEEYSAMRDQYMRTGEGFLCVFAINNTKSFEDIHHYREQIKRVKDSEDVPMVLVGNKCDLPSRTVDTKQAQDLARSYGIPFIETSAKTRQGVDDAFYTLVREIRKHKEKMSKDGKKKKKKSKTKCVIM

| Compound | pIC50 (KRAS G12D) | pIC50 (KRAS G12V mutant) | Caco-2 (Caco-2 cells; Table 4) | Caco-2 (Caco-2 cells; Table 3) |
| --- | --- | --- | --- | --- |
| CC(=O)N1CCC[C@@H]1c1cc2c(-c3ccnc(C)c3)nc3c(F)c(-c4cccc5c4C(C#N)CCC5)c(C)cc3c2n1[C@H]1[C@H]2CN[C@@H]1C2 (single isomer, unassigned) [Example 35] | > 7.00 | > 7.00 | ++ (a Caco-2 value of >0.5 but ≤1) | – |
| Cc1cc2c(nc(O[C@@H](C)[C@@H]3CCCN3C)c3cc(CN4CCOCC4=O)n([C@H]4[C@H]5CN[C@@H]4C5)c32)c(F)c1-c1cccc2cccc(C#N)c12 (single isomer, unassigned) [Example 8] | > 7.00 | > 7.00 | – | + (a Caco-2 value of 50.5) |
| Cc1nc2c(F)c(-c3cccc(Cl)c3Cl)c(CCC#N)cc2c2c1cc([C@@H](C)NC(=O)[C@@H]1CCCO1)n2[C@H]1[C@H]2CN[C@@H]1C2 [Example 57, (2S)—N-((1R)-1-(1-((1R,4R,5S)-2-Azabicyclo[2.1.1]hexan-5-yl)-8-(2-cyanoethyl)-7-(2,3-dichlorophenyl)-6-fluoro-4-methyl-1H-pyrrolo[3,2-c]quinolin-2-yl)ethyl)tetrahydrofuran-2-carboxamide] | > 7.00 | > 7.00 | +++ (a Caco-2 value of >1) | – |
| CC(=O)N1CC[C@H](n2ncc3c(O[C@@H](C)[C@@H]4CCCN4C)nc4c(F)c(-c5nccc6cccc(C#N)c56)c(Cl)cc4c32)C[C@H]1CC#N (single isomer, unassigned) [Example 23a] | > 7.00 | > 7.00 | – | – |
| [2H]C([2H])([2H])c1nc2c(F)c(-c3cccc(Cl)c3Cl)c(CCC#N)cc2c2c1cc([C@H]1CCCN1C(=O)N1CC(F)(F)C1)n2[C@H]1[C@H]2CN[C@@H]1C2 [Example 42, 3-(1-((1R,4R,5S)-2-Azabicyclo[2.1.1]hexan-5-yl)-7-(2,3-dichlorophenyl)-2-((R)-1-(3,3-difluoroazetidine-1-carbonyl)pyrrolidin-2-yl)-6-fluoro-4-(methyl-d3)-1H-pyrrolo[3,2-c]quinolin-8-yl)propanenitrile] | > 7.00 | > 7.00 | ++ (a Caco-2 value of >0.5 but ≤1) | – |
| CC(=O)N1CC[C@H](n2ncc3c(O[C@@H](C)[C@@H]4CCCN4C)nc4c(F)c(-c5cccc6cccc(C#N)c56)c(Cl)cc4c32)C[C@H]1CC#N [Example 25, 8-(1-((2S,4S)-1-acetyl-2-(cyanomethyl)piperidin-4-yl)-8-chloro-6-fluoro-4-((S)-1-((S)-1-methylpyrrolidin-2-yl)ethoxy)-1H-pyrazolo[4,3-c]quinolin-7-yl)-1-naphthonitrile] | > 7.00 | > 7.00 | – | +++ (a Caco-2 value of >1) |
| C[C@H](c1cc2c(-c3ccc(C(C)(C)O)nc3)nc3c(F)c(-c4cccc(Cl)c4Cl)c(CCC#N)cc3c2n1[C@H]1[C@H]2CN[C@@H]1C2)n1ccncc1=O [Example 50, 3-(1-((1R,4R,5S)-2-Azabicyclo[2.1.1]hexan-5-yl)-7-(2,3-dichlorophenyl)-6-fluoro-4-(6-(2-hydroxypropan-2-yl)pyridin-3-yl)-2-((R)-1-(2-oxopyrazin-1(2H)-yl)ethyl)-1H-pyrrolo[3,2-c]quinolin-8-yl)propanenitrile] | > 7.00 | > 7.00 | +++ (a Caco-2 value of >1) | – |
| CCOC(=O)N1CCC[C@@H]1c1cc2c(-c3ccc(C(C)(C)O)nc3)nc3c(F)c(-c4cccc(Cl)c4Cl)c(CCC#N)cc3c2n1[C@H]1[C@H]2CN[C@@H]1C2 [Example 41, Ethyl (2R)-2-(1-((1R,4R,5S)-2-azabicyclo[2.1.1]hexan-5-yl)-8-(2-cyanoethyl)-7-(2,3-dichlorophenyl)-6-fluoro-4-(6-(2-hydroxypropan-2-yl)pyridin-3-yl)-1H-pyrrolo[3,2-c]quinolin-2-yl)pyrrolidine-1-carboxylate] | > 7.00 | > 7.00 | +++ (a Caco-2 value of >1) | – |
| COC(=O)N1[C@H](C)CC[C@@H]1c1cc2c(-c3ccc(C(C)(C)O)nc3)nc3c(F)c(-c4cccc(Cl)c4Cl)c(CCC#N)cc3c2n1[C@H]1[C@H]2CN[C@@H]1C2 [Example 52, Methyl (2R,5R)-2-(1-((1R,4R,5S)-2-azabicyclo[2.1.1]hexan-5-yl)-8-(2-cyanoethyl)-7-(2,3-dichlorophenyl)-6-fluoro-4-(6-(2-hydroxypropan-2-yl)pyridin-3-yl)-1H-pyrrolo[3,2-c]quinolin-2-yl)-5-methylpyrrolidine-1-carboxylate] | > 7.00 | > 7.00 | +++ (a Caco-2 value of >1) | – |
| CC(=O)N1CC[C@H](n2ncc3c(O[C@@H](C)[C@@H]4CCCN4C)nc4c(F)c(-c5nccc6cccc(C#N)c56)c(Cl)cc4c32)C[C@H]1CC#N [Example 23, 1-(1-((2S,4S)-1-Acetyl-2-(cyanomethyl)piperidin-4-yl)-8-chloro-6-fluoro-4-((S)-1-((S)-1-methylpyrrolidin-2-yl)ethoxy)-1H-pyrazolo[4,3-c]quinolin-7-yl)isoquinoline-8-carbonitrile] | – | – | – | ++ (a Caco-2 value of >0.5 but ≤1) |
| CC(=O)N1CC[C@H](n2ccc3c(O[C@@H](C)[C@@H]4CCCN4C)nc4c(F)c(-c5cccc6cccc(C#N)c56)c(Cl)cc4c32)C[C@H]1CC#N (single isomer, unassigned) [Example 24a] | > 7.00 | > 7.00 | – | – |

Results, then the molecule that gave them:

| pIC50 (KRAS G12D) | pIC50 (KRAS G12V mutant) | Caco-2 (Caco-2 cells; Table 4) | Caco-2 (Caco-2 cells; Table 3) | Compound |
| --- | --- | --- | --- | --- |
| > 7.00 | > 7.00 | ++ (a Caco-2 value of >0.5 but ≤1) | – | COC(=O)N1[C@@H](c2cc3c(-c4ccc(C(=O)N(C)C)nc4)nc4c(F)c(-c5cccc(Cl)c5Cl)c(CCC#N)cc4c3n2[C@H]2[C@H]3CN[C@@H]2C3)C[C@H]2C[C@H]21 [Example 48, Methyl (1R,3R,5R)-3-(1-((1R,4R,5S)-2-azabicyclo[2.1.1]hexan-5-yl)-8-(2-cyanoethyl)-7-(2,3-dichlorophenyl)-4-(6-(dimethylcarbamoyl)pyridin-3-yl)-6-fluoro-1H-pyrrolo[3,2-c]quinolin-2-yl)-2-azabicyclo[3.1.0]hexane-2-carboxylate] |
| > 7.00 | > 7.00 | – | – | CN1CC(F)(COc2nc3c(F)c(-c4cc(O)cc5ccccc45)c(CCC#N)cc3c3c2cc(CCC(=O)N(C)C)n3[C@H]2[C@H]3CN[C@@H]2C3)C1 (single isomer, unassigned) [Example 13] |
| > 7.00 | > 7.00 | – | + (a Caco-2 value of 50.5) | C[C@H](Oc1nc2c(F)c(-c3cccc4cc(F)c(F)cc34)c(CCC#N)cc2c2c1cc(CCC(=O)N1CCC1)n2[C@H]1[C@H]2CN[C@@H]1C2)[C@@H]1CCCN1C (single isomer, unassigned) [Example 21] |
| – | – | – | + (a Caco-2 value of 50.5) | CC(=O)N1CC[C@H](n2ccc3c(O[C@@H](C)[C@@H]4CCCN4C)nc4c(F)c(-c5cccc6cccc(C#N)c56)c(Cl)cc4c32)C[C@H]1CC#N [Example 24, 8-(1-((2S,4S)-1-acetyl-2-(cyanomethyl)piperidin-4-yl)-8-chloro-6-fluoro-4-((S)-1-((S)-1-methylpyrrolidin-2-yl)ethoxy)-1H-pyrrolo[3,2-c]quinolin-7-yl)-1-naphthonitrile] |
| – | – | +++ (a Caco-2 value of >1) | – | Cc1cnc(-c2nc3c(F)c(-c4cccc(Cl)c4C)c(CCC#N)cc3c3c2cc([C@@H](C)N2CCOCC2=O)n3[C@H]2[C@H]3CN[C@@H]2C3)cn1 [Example 44, 3-(1-((1R,4R,5S)-2-Azabicyclo[2.1.1]hexan-5-yl)-7-(3-chloro-2-methylphenyl)-6-fluoro-4-(5-methylpyrazin-2-yl)-2-((R)-1-(3-oxomorpholino)ethyl)-1H-pyrrolo[3,2-c]quinolin-8-yl)propanenitrile] |
